Assay results: US6159733A, “Method for photoinactivating malignant cells” (priority 1996, dated 2000)

What was measured:
ABE-8.1/2 cells [1] = assay: Uptake of Pc 4, flow cytometry; type: cell-based, murine; details: for Pc 4 content / Pc 4 content per cell volume: 15 nM
Protocol: (§1) Cell lines and culture conditions. WEHI-3 (murine myelocytic leukemia), L1210 (murine lymphocytic leukemia) and P815 (murine mastocytoma) cells were grown in RPMI 1640 (GibcoBRL, Grand Island, N.Y.) supplemented with 10% FBS. BC3A (murine leukemia) cells were grown in RPMI 1640 supplemented with 10 μM β-mercaptoethanol and 10% FBS; ABE-8.1/2 (murine pre-B lymphoma) cells were grown in DMEM (GibcoBRL)--10 μM β-mercaptoethanol--10% FBS. All cell lines were obtained from the American Type Culture Collection (Rockville, Md.) and were cultured at 37° C. in a humidified 5% CO2 -incubator. Prior to incubation with Pc 4, the cell lines were centrifuged and resuspended in phosphate buffered saline (PBS)--10% FBS, pH 7.4.
(§2) In mixing experiments, aliquots of Ly-5.2 BM and cell lines samples were mixed at different ratios. The combined cell concentration of each sample was 1.5×10^7 cells/mL. […] The cell lines were stained with anti-Ly-5.1^FITC. This treatment allowed clear resolution of the relatively small ABE-8.1/2 and BC3A cells from the bone marrow granulocytes. Immediately prior to the analyses, propidium iodide (PI, 0.5 μg/mL) was added to the samples to allow exclusion of dead cells (PI^+) from the analyses. The samples were analyzed in a FACStar^PLUS (BD) that was equipped with an argon ion laser tuned to 488 nm (200 mW) and a dye laser tuned to 610 nm (300 mW). FITC, PE, PI and Pc 4 fluorescence emissions were collected through 530/30, 575/42, 660/10, 670/10 nm band pass filters, respectively.
(§3) Cell size. Microscopic measurements of at least 20 cells were performed using a calibrated micrometer. To determine the cell size of the BM progenitor subsets, the c-kit^+,Sca-1^- and c-kit^+,Sca-1^+ fractions were sorted. The sorted cells were centrifuged and the pellets were resuspended in a 20 μl of HBBS. Samples were deposited onto microscope slides and covered with a cover slip. Cell diameters of 7.7±0.2 (c-kit^+,Sca-1^+), 8.4±0.3 (c-kit^+,Sca-1^-), 10.9±0.2 (BC3A), 11.1±0.2 (ABE-8.1/2), 13.0±0.3 (L1210), 14.2±0.3 (P815), 15.0±0.4 μm (WEHI-3) were obtained.

WEHI-3 cells [2] = assay: Uptake of Pc 4, flow cytometry; type: cell-based, murine; details: for Pc 4 content / Pc 4 content per cell volume: 15 nM
Protocol: as §1, §2, §3

ABE-8.1/2 cells [3] = assay: Uptake of Pc 4 in mixtures of BM and cell lines; type: cell-based, murine
Protocol: as §2

BC3A cells = assay: Uptake of Pc 4 in mixtures of BM and cell lines; type: cell-based, murine; details: for Pc 4 content in cell line: BM/BC3A
Protocol: as §2

BM progenitors (c-kit^+) = assay: Uptake of Pc 4 in mixtures of BM and cell lines; type: cell-based, murine
Protocol: as §2

L1210 cells = assay: Uptake of Pc 4 in mixtures of BM and cell lines; type: cell-based, murine
Protocol: as §2

P815 cells = assay: Uptake of Pc 4 in mixtures of BM and cell lines; type: cell-based, murine
Protocol: as §2

WEHI-3 cells [4] = assay: Uptake of Pc 4 in mixtures of BM and cell lines; type: cell-based, murine
Protocol: as §2

parasites = details: blood products; cited from earlier work
HL-60 = details: 15 nM Pc 4, 5×10^6 cells/mL, 8 J/cm^2; cited from earlier work
[5] = 1.5×10^6 cells/ml during incubation
[6] = 1.5×10^7 cells/ml during incubation
[7] = from 8.0×10^5 to 1.5×10^7 cells/mL
[8] = versus 1.5×10^7 cells/mL without BM

CN(C)CCC[Si](C)(C)O[Si]1(O)n2c3c4ccccc4c2N=C2N=C(N=c4c5ccccc5c(n41)=NC1=NC(=N3)c3ccccc31)c1ccccc12 (centres unmarked) [Pc 4, hydroxysiloxy-dimethylpropyl-N-dimethyl silicon phthalocyanine]
Pc 4 content (ABE-8.1/2 cells [1]; [5]): 218 ± 29.0 Mean fluorescence/cell
Pc 4 content per cell volume (ABE-8.1/2 cells [1]; [5]): 0.30 Mean fluorescence/μm^3
Pc 4 content (ABE-8.1/2 cells [1]; [6]): 95 ± 7.6 Mean fluorescence/cell
Pc 4 content per cell volume (ABE-8.1/2 cells [1]; [6]): 0.13 Mean fluorescence/μm^3
reduction of Pc 4 uptake (ABE-8.1/2 cells [1]; [7]): 2.5 fold
Pc 4 content (WEHI-3 cells [2]; [5]): 296 ± 8.5 Mean fluorescence/cell
Pc 4 content per cell volume (WEHI-3 cells [2]; [5]): 0.17 Mean fluorescence/μm^3
Pc 4 content (WEHI-3 cells [2]; [6]): 57 ± 4.7 Mean fluorescence/cell
Pc 4 content per cell volume (WEHI-3 cells [2]; [6]): 0.03 Mean fluorescence/μm^3
reduction of Pc 4 uptake (WEHI-3 cells [2]; [7]): 5.1 fold
Pc 4 uptake in mixtures versus cell line alone (ABE-8.1/2 cells [3]; BM fraction<0.9, versus without BM): lower
Pc 4 content in cell line (ABE-8.1/2 cells [3]; BM/ABE-8.1/2, BM fraction 0.50): 74 Mean fluorescence/cell
Pc 4 content in cell line (ABE-8.1/2 cells [3]; BM/ABE-8.1/2, BM fraction 0.70): 86 Mean fluorescence/cell
Pc 4 content in cell line (ABE-8.1/2 cells [3]; BM/ABE-8.1/2, BM fraction 0.80): 91 Mean fluorescence/cell
Pc 4 content in cell line (ABE-8.1/2 cells [3]; BM/ABE-8.1/2, BM fraction 0.90): 95 Mean fluorescence/cell
Pc 4 content in cell line (ABE-8.1/2 cells [3]; BM/ABE-8.1/2, BM fraction 0.95): 100 Mean fluorescence/cell
Pc 4 content in cell line (BC3A cells; BM fraction 0.50): 104 Mean fluorescence/cell
Pc 4 content in cell line (BC3A cells; BM fraction 0.70): 26 Mean fluorescence/cell
Pc 4 content in cell line (BC3A cells; BM fraction 0.80): 138 Mean fluorescence/cell
Pc 4 content in cell line (BC3A cells; BM fraction 0.90): 153 Mean fluorescence/cell
Pc 4 content in cell line (BC3A cells; BM fraction 0.95): 166 Mean fluorescence/cell
Pc 4 uptake in mixtures versus cell line alone (BC3A cells; [8]): contained more Pc 4
Pc 4 content in c-kit^+ BM (BM progenitors (c-kit^+); BM/ABE-8.1/2, BM fraction 0.50): 48 Mean fluorescence/cell
Pc 4 content in c-kit^+ BM (BM progenitors (c-kit^+); BM/ABE-8.1/2, BM fraction 0.70): 52 Mean fluorescence/cell
Pc 4 content in c-kit^+ BM (BM progenitors (c-kit^+); BM/ABE-8.1/2, BM fraction 0.80): 49 Mean fluorescence/cell
Pc 4 content in c-kit^+ BM (BM progenitors (c-kit^+); BM/ABE-8.1/2, BM fraction 0.90): 55 Mean fluorescence/cell
Pc 4 content in c-kit^+ BM (BM progenitors (c-kit^+); BM/ABE-8.1/2, BM fraction 0.95): 62 Mean fluorescence/cell
Pc 4 content in c-kit^+ BM (BM progenitors (c-kit^+); BM/BC3A, BM fraction 0.50): 48 Mean fluorescence/cell
Pc 4 content in c-kit^+ BM (BM progenitors (c-kit^+); BM/BC3A, BM fraction 0.70): 53 Mean fluorescence/cell
Pc 4 content in c-kit^+ BM (BM progenitors (c-kit^+); BM/BC3A, BM fraction 0.80): 61 Mean fluorescence/cell
Pc 4 content in c-kit^+ BM (BM progenitors (c-kit^+); BM/BC3A, BM fraction 0.90): 68 Mean fluorescence/cell
Pc 4 content in c-kit^+ BM (BM progenitors (c-kit^+); BM/BC3A, BM fraction 0.95): 64 Mean fluorescence/cell
Pc 4 content in c-kit^+ BM (BM progenitors (c-kit^+); BM/L1210, BM fraction 0.50): 35 Mean fluorescence/cell
Pc 4 content in c-kit^+ BM (BM progenitors (c-kit^+); BM/L1210, BM fraction 0.70): 43 Mean fluorescence/cell
Pc 4 content in c-kit^+ BM (BM progenitors (c-kit^+); BM/L1210, BM fraction 0.80): 48 Mean fluorescence/cell
Pc 4 content in c-kit^+ BM (BM progenitors (c-kit^+); BM/L1210, BM fraction 0.90): 54 Mean fluorescence/cell
Pc 4 content in c-kit^+ BM (BM progenitors (c-kit^+); BM/L1210, BM fraction 0.95): 60 Mean fluorescence/cell
Pc 4 content in c-kit^+ BM (BM progenitors (c-kit^+); BM/P815, BM fraction 0.50): 45 Mean fluorescence/cell
Pc 4 content in c-kit^+ BM (BM progenitors (c-kit^+); BM/P815, BM fraction 0.70): 51 Mean fluorescence/cell
Pc 4 content in c-kit^+ BM (BM progenitors (c-kit^+); BM/P815, BM fraction 0.80): 64 Mean fluorescence/cell
Pc 4 content in c-kit^+ BM (BM progenitors (c-kit^+); BM/P815, BM fraction 0.90): 63 Mean fluorescence/cell
Pc 4 content in c-kit^+ BM (BM progenitors (c-kit^+); BM/P815, BM fraction 0.95): 64 Mean fluorescence/cell
Pc 4 content in c-kit^+ BM (BM progenitors (c-kit^+); BM/WEHI-3, BM fraction 0.50): 30 Mean fluorescence/cell
Pc 4 content in c-kit^+ BM (BM progenitors (c-kit^+); BM/WEHI-3, BM fraction 0.70): 38 Mean fluorescence/cell
Pc 4 content in c-kit^+ BM (BM progenitors (c-kit^+); BM/WEHI-3, BM fraction 0.80): 46 Mean fluorescence/cell
Pc 4 content in c-kit^+ BM (BM progenitors (c-kit^+); BM/WEHI-3, BM fraction 0.90): 58 Mean fluorescence/cell
Pc 4 content in c-kit^+ BM (BM progenitors (c-kit^+); BM/WEHI-3, BM fraction 0.95): 65 Mean fluorescence/cell
Pc 4 uptake of BM progenitor fractions in mixtures versus BM alone (BM progenitors (c-kit^+); all mixtures (p>0.07)): lower, though not significantly
Pc 4 content in cell line (L1210 cells; BM/L1210, BM fraction 0.50): 153 Mean fluorescence/cell
Pc 4 content in cell line (L1210 cells; BM/L1210, BM fraction 0.70): 189 Mean fluorescence/cell
Pc 4 content in cell line (L1210 cells; BM/L1210, BM fraction 0.80): 210 Mean fluorescence/cell
Pc 4 content in cell line (L1210 cells; BM/L1210, BM fraction 0.90): 242 Mean fluorescence/cell
Pc 4 content in cell line (L1210 cells; BM/L1210, BM fraction 0.95): 260 Mean fluorescence/cell
Pc 4 uptake in mixtures versus cell line alone (L1210 cells; [8]): contained more Pc 4
Pc 4 content in cell line (P815 cells; BM/P815, BM fraction 0.50): 205 Mean fluorescence/cell
Pc 4 content in cell line (P815 cells; BM/P815, BM fraction 0.70): 241 Mean fluorescence/cell
Pc 4 content in cell line (P815 cells; BM/P815, BM fraction 0.80): 270 Mean fluorescence/cell
Pc 4 content in cell line (P815 cells; BM/P815, BM fraction 0.90): 312 Mean fluorescence/cell
Pc 4 content in cell line (P815 cells; BM/P815, BM fraction 0.95): 335 Mean fluorescence/cell
Pc 4 uptake in mixtures versus cell line alone (P815 cells; [8]): contained more Pc 4
Pc 4 content in cell line (WEHI-3 cells [4]; BM/WEHI-3, BM fraction 0.50): 106 Mean fluorescence/cell
Pc 4 content in cell line (WEHI-3 cells [4]; BM/WEHI-3, BM fraction 0.70): 140 Mean fluorescence/cell
Pc 4 content in cell line (WEHI-3 cells [4]; BM/WEHI-3, BM fraction 0.80): 164 Mean fluorescence/cell
Pc 4 content in cell line (WEHI-3 cells [4]; BM/WEHI-3, BM fraction 0.90): 204 Mean fluorescence/cell
Pc 4 content in cell line (WEHI-3 cells [4]; BM/WEHI-3, BM fraction 0.95): 229 Mean fluorescence/cell
Pc 4 uptake in mixtures versus cell line alone (WEHI-3 cells [4]; [8]): contained more Pc 4
photoinactivation of parasites (parasites): effectively photoinactivate
surviving fraction of human cells (HL-60): < 10^-5
